From publication PMC8949187, “Study of Structure–Activity Relationships of the Marine Alkaloid Fascaplysin and Its Derivatives as Potent Anticancer Agents” (Marine Drugs, 2022)

Key:
[1] = system: PC-3 cells; test: MTT assay, PC-3 cells; format: cell-based, human; conditions: Homo sapiens, PC-3; prostate cancer cells; 48 h of treatment; mean ± SD
Procedure: (§1) The human prostate cancer cell lines PC-3, DU145, 22Rv1 and LNCaP, as well as human prostate non-cancer cell line PNT2 were purchased from ATCC (Manassas, VA, USA). HEK 293T (human embryonic kidney cells) and MRC-9 (human fibroblast cells) cell lines were purchased from ECACC (Salisbury, UK). […] Authentication of all cell lines used was recently performed by a commercial service (Multiplexion GmbH, Heidelberg, Germany).
(§2) Cells were cultured as monolayers at 37 °C in a humidified atmosphere with 5% (v/v) CO2 in the correspondent culture medium: 10% FBS/RPMI medium (RPMI medium supplemented with Glutamax^TM-I (gibco® Life technologies^TM, Paisley, UK) containing 10% fetal bovine serum (FBS, gibco® Life technologies^TM) and 1% penicillin/streptomycin (Invitrogen)) for PNT2, LNCaP, 22Rv1, PC-3 and DU145 and cells; 10% FBS/DMEM medium (DMEM medium supplemented with Glutamax^TM-I (gibco® Life technologies^TM) containing 10% FBS and 1% penicillin/streptomycin (gibco® Life technologies^TM)) for MRC-9 and HEK 293 cells. Cells were continuously kept in culture for a maximum of 3 months, and were regularly checked for stable phenotype and mycoplasma infection.
(§3) Effect of the drugs on cell viability in terms of metabolic activity was assessed by MTT assay, as previously reported. Cells were pre-incubated overnight in 96-well plates (6 × 10^3 cells/well in 100 μL/well) in the correspondent culture media. Then, the medium was replaced with fresh 10% FBS/RPMI medium containing the investigated compounds (100 μL/well), and cells were incubated for 48 h, unless otherwise stated. Next, 10 μL/well of (3-(4,5-dimethylthiazol-2-yl)-2,5-diphenyltetrazolium bromide) reagent (MTT, 5 mg/mL) was added. After 2–4 h of incubation, the media was aspirated and the plates were dried. Then, 50 μL/well of DMSO was added to each well and the cell viability was measured using an Infinite F200PRO reader (TECAN, Männedorf, Switzerland). Results were calculated using the GraphPad Prism software v.9.1.1 (GraphPad Software, San Diego, CA, USA) and are represented as IC50 of the compounds calculated using the cells treated with the solvent alone as a control.

[2] = system: 22Rv1 cells; test: MTT assay, 22Rv1 cells; format: cell-based, human; conditions: Homo sapiens, 22Rv1; prostate cancer cells; 48 h of treatment; mean ± SD
Procedure: as §1, §2, §3

[3] = system: DU145 cells; test: MTT assay, DU145 cells; format: cell-based, human; conditions: Homo sapiens, DU-145; prostate cancer cells; 48 h of treatment; mean ± SD
Procedure: as §1, §2, §3

[4] = system: LNCaP cells; test: MTT assay, LNCaP cells; format: cell-based, human; conditions: Homo sapiens, LNCaP; prostate cancer cells; 48 h of treatment; mean ± SD
Procedure: as §1, §2, §3

[5] = system: PNT2 cells; test: MTT assay, PNT2 cells; format: cell-based, human; conditions: Homo sapiens, PNT2; non-cancer cells; 48 h of treatment; mean ± SD
Procedure: as §1, §2, §3

[6] = system: MRC-9 cells; test: MTT assay, MRC-9 cells; format: cell-based, human; conditions: Homo sapiens, MRC9; non-cancer cells; 48 h of treatment; mean ± SD
Procedure: as §1, §2, §3

[7] = system: HEK-293 cells; test: MTT assay, HEK-293 cells; format: cell-based, human; conditions: Homo sapiens, HEK293; non-cancer cells; 48 h of treatment; mean ± SD
Procedure: as §1, §2, §3

[8] = system: 22Rv1 cells; test: Trypan blue-based viability assay; format: cell-based, human; conditions: Homo sapiens, 48 h of treatment, mean ± SD, read-out: IC50, trypan blue staining assay
Procedure: The effect of the drugs on cell viability in terms of cellular membrane integrity was evaluated by the trypan blue exclusion assay as described before. In brief, cells (0.2 × 10^6 cells/well) were seeded in 6-well plates and incubated overnight, and the media was replaced with fresh media (1 mL/well) containing drugs at indicated concentrations. After treatment for 48 h, the cells were harvested by trypsinization, stained with trypan blue and the viability was measured using an automatic Beckman Coulter Vi-CELL (Beckman Coulter, Krefeld, Germany). Trypan blue-positive cells were assumed to have damaged cellular membrane (i.e., dead), whereas trypan blue-negative cells were considered to have an intact cellular membrane (i.e., alive).

[9] = system: 22Rv1 cells; test: Cell cycle progression, flow cytometry with PI staining; format: cell-based, human; conditions: treated at IC50 (MTT assay) for 48 h
Procedure: (§4) The effects on cell cycle progression and DNA fragmentation were analyzed by flow cytometry using PI staining, as described before. Cells (2 × 10^5 cells/well) were pre-incubated overnight in 6-well plates and then treated with the investigated drugs in fresh culture media (2 mL/well) for 48 h. Cells were harvested by trypsinization, fixed in 70% EtOH, stained with PI solution and analyzed by FACS Calibur (BD Bioscience, San Jose, CA, USA). The results were quantified using BD Bioscience Cell Quest Pro v.5.2.1. software (BD Bioscience). The cells appearing as a sub-G1 population (containing fragmented DNA) were considered to be apoptotic.

[10] = system: 22Rv1 cells; test: DNA fragmentation (apoptosis, sub-G1), flow cytometry with PI staining; format: cell-based, human; conditions: treated at IC50 (MTT assay) for 48 h, mean ± SD
Procedure: as §4

[11] = system: prostate cancer cell lines (PC-3, 22Rv1, DU145 and LNCaP); test: MTT assay, mean over four prostate cancer cell lines; format: cell-based; conditions: Homo sapiens; mean of MTT IC50 in PC-3, 22Rv1, DU145 and LNCaP; from Table S1 values; read-out: mean IC50 in cancer cells
Procedure: as §3, with “Next, SAR analysis was performed to identify the structural elements that are beneficial for anticancer activity of the fascaplysin-related molecules. Considering the complex and heterogeneous nature of tumors even within the same patient, we used calculated mean IC50 values of each drug in all prostate cancer cells for further analysis (Figure 2A). To identify the drug candidates with the highest therapeutic potential, the selectivity index (SI) was calculated as mean IC50 in non-cancer cells versus mean IC50 in cancer cells (Figure 2B), or as a mean IC50 in non-cancer (MRC-9 and HEK293) cells versus mean IC50 in prostate cells (cancer PC-3, 22Rv1, DU145, LNCaP and non-cancer PNT2 cells) (Figure 2C). Finally, to estimate the effects on cellular metabolism, we compared the activity evaluated by using trypan blue assay versus MTT assay (Figure 2D). Effect” for “Effect”, “2-4” for “2–4”, “F200PRO” left out

[12] = system: non-cancer cell lines versus cancer cell lines; test: Selectivity index from MTT IC50s; format: cell-based, human; conditions: for Selectivity index, IC50 (non-prostate) / IC50 (prostate): mean IC50 MRC-9 and HEK-293 versus mean IC50 prostate cancer cell lines plus PNT2; for Selectivity index, IC50 (non-prostate) / IC50 (prostate) / Selectivity index, IC50 (non-cancer) / IC50 (cancer): MTT; for Selectivity index, IC50 (non-cancer) / IC50 (cancer): mean IC50 non-cancer cell lines versus mean IC50 cancer cell lines
Procedure: as §3, with “Next, SAR analysis was performed to identify the structural elements that are beneficial for anticancer activity of the fascaplysin-related molecules. Considering the complex and heterogeneous nature of tumors even within the same patient, we used calculated mean IC50 values of each drug in all prostate cancer cells for further analysis (Figure 2A). To identify the drug candidates with the highest therapeutic potential, the selectivity index (SI) was calculated as mean IC50 in non-cancer cells versus mean IC50 in cancer cells (Figure 2B), or as a mean IC50 in non-cancer (MRC-9 and HEK293) cells versus mean IC50 in prostate cells (cancer PC-3, 22Rv1, DU145, LNCaP and non-cancer PNT2 cells) (Figure 2C). Finally, to estimate the effects on cellular metabolism, we compared the activity evaluated by using trypan blue assay versus MTT assay (Figure 2D). Effect” for “Effect”, “2-4” for “2–4”, “F200PRO” left out

[13] = system: double-stranded calf thymus DNA; test: Thiazole orange displacement (DNA intercalation) assay; format: binding; conditions: 1 µM calf thymus DNA base pairs, 2 µM thiazole orange; 7 min at room temperature; mean ± SD
Procedure: DNA intercalation activity of the compounds was calculated as an ability to displace thiazole orange (TO) from the double-stranded DNA. For this experiment, a mixture (100 µL) containing 1 µM of double-stranded calf thymus DNA (recalculated as a concentration of base pairs) and 2 µM of thiazole orange (TO) solved in water was prepared. Then, the investigated compounds were added up to final concentrations of 0.39–25 µM; DMSO concentration in the samples was <0.02%. Propidium iodide (PI, positive control) was added up to final concentrations of 0.039–2.5 uM. After 7 min of incubation at room temperature, TO fluorescence was monitored using a multimodal plate reader TECAN Spark (Tecan Group Ltd., Männedorf Switzerland) at the excitation λ = 480 nm; fluorescence was recorded at λ = 530 nm. The bandwidth was 10 nm. The concentration of the drug that caused a decrease in TO fluorescence by 50% (EC50) was determined by approximating the experimental data using a non-linear regression algorithm and calculated using the GraphPad Prism software v.9.1.1 (GraphPad Software, San Diego, CA, USA).

Compound	IC50 [1]	IC50 [2]	IC50 [3]	IC50 [4]	IC50 [5]	IC50 [6]	IC50 [7]	IC50 [8]	Cell cycle arrest (at IC50) [9]	% of sub-G1 apoptotic cells (at IC50) [10]	IC50 [11]	Selectivity index, IC50 (non-prostate) / IC50 (prostate) [12]	Selectivity index, IC50 (non-cancer) / IC50 (cancer) [12]	EC50 [13]	Selectivity index (SI), for Figure 2B,C ([12]; both SI definitions (Figure 2B,C))
O=C1c2cc(Br)ccc2-[n+]2ccc3c([nH]c4ccc(Cl)cc43)c21.[Cl-] [Compound 12, 12,13-dihydro-2-bromo-9-chloro-13-oxopyrido[1,2-a:3,4-b’]diindol-5-ium chloride]	13200 ± 2870 nM	2890 ± 890 nM	2080 ± 580 nM	2700 ± 173 nM	3330 ± 806 nM	36300 ± 9510 nM	750 ± 65 nM	1640 ± 850 nM	No	6.95±0.901%	5230 nM	3.82	2.58		
O=C1c2cc(Br)ccc2-[n+]2ccc3c([nH]c4c(Cl)cc(Cl)cc43)c21.[Cl-] [Compound 14, 12,13-dihydro-2-bromo-9,11-dichloro-13-oxopyrido[1,2-a:3,4-b’]diindol-5-ium chloride]	5290 ± 132 nM	4150 ± 340 nM	6910 ± 650 nM	6510 ± 2320 nM	2750 ± 1740 nM	> 50000 nM	2610 ± 429 nM	7430 ± 850 nM	No	23.6±1.2%	5720 nM	5.14	3.23		
CCc1c[n+]2c(c3[nH]c4ccccc4c13)C(=O)c1ccccc1-2.[Cl-] [Compound 17, 12,13-dihydro-7-ethyl-13-oxopyrido[1,2-a:3,4-b’]diindol-5-ium chloride]	564 ± 98 nM	271 ± 46 nM	2370 ± 450 nM	611 ± 47 nM	490 ± 90 nM	1450 ± 645 nM	700 ± 211 nM	375 ± 90 nM		13.4±0.92%	950 nM	1.25	0.92	1030 ± 30 nM	
O=C1c2ccccc2-[n+]2ccc3c([nH]c4ccc(I)cc43)c21.[Cl-] [Compound 7, 12,13-dihydro-9-iodo-13-oxopyrido[1,2-a:3,4-b’]diindol-5-ium chloride]	3670 ± 200 nM	550 ± 71 nM	319 ± 75 nM	171 ± 35 nM	145 ± 66 nM	924 ± 132 nM	809 ± 164 nM	80 ± 4 nM		6.3±0.906%	1180 nM	0.89	0.53	2140 ± 100 nM	< 1
O=C1c2ccccc2-[n+]2c(-c3ccccc3)cc3c([nH]c4ccccc43)c21.[Cl-] [Compound 20, 12,13-dihydro-6-phenyl-13-oxopyrido[1,2-a:3,4-b’]diindol-5-ium chloride]	429 ± 100 nM	156 ± 32 nM	444 ± 95 nM	283 ± 35 nM	440 ± 75 nM	860 ± 111 nM	412 ± 66 nM	207 ± 74 nM	No	16.4±2.47%	330 nM	1.82	1.74		
